Measured values reported in PubChem BioAssay (NCI).
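Method: 48-hour compound exposure of cells in 96-well plates, five concentrations, linear interpolation of endpoints. TGI is the concentration that stops growth completely.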

How the values were obtained:
Experiment in all cases: inhibition of tumour cell growth, NCI panel, 48 h
786-0 renal = system: 786-0 renal
A498 renal = system: A498 renal
A549 NSCLC = system: A549 NSCLC
ACHN renal = system: ACHN renal
CAKI-1 renal = system: CAKI-1 renal
CCRF-CEM leukemia = system: CCRF-CEM leukemia
COLO 205 colon = system: COLO 205 colon
DLD-1 colon = system: DLD-1 colon
DMS 114 small cell lung = system: DMS 114 small cell lung
DMS 273 small cell lung = system: DMS 273 small cell lung
EKVX NSCLC = system: EKVX NSCLC
HCC-2998 colon = system: HCC-2998 colon
HCT-116 colon = system: HCT-116 colon
HCT-15 colon = system: HCT-15 colon
HL-60(TB) leukemia = system: HL-60(TB) leukemia
HOP-18 NSCLC = system: HOP-18 NSCLC
HOP-92 NSCLC = system: HOP-92 NSCLC
HT29 colon = system: HT29 colon
IGROV1 ovarian = system: IGROV1 ovarian
K-562 leukemia = system: K-562 leukemia
KM12 colon = system: KM12 colon
LOX IMVI melanoma = system: LOX IMVI melanoma
LXFL 529 NSCLC = system: LXFL 529 NSCLC
M14 melanoma = system: M14 melanoma
M19-MEL melanoma = system: M19-MEL melanoma
MALME-3M melanoma = system: MALME-3M melanoma
MOLT-4 leukemia = system: MOLT-4 leukemia
NCI-H226 lung = system: NCI-H226 lung
NCI-H23 lung = system: NCI-H23 lung
NCI-H460 lung = system: NCI-H460 lung
NCI-H522 lung = system: NCI-H522 lung
OVCAR-3 ovarian = system: OVCAR-3 ovarian
OVCAR-8 ovarian = system: OVCAR-8 ovarian
RPMI-8226 leukemia = system: RPMI-8226 leukemia
RXF 393 renal = system: RXF 393 renal
SF-295 CNS = system: SF-295 CNS
SF-539 CNS = system: SF-539 CNS
SK-MEL-28 melanoma = system: SK-MEL-28 melanoma
SK-MEL-5 melanoma = system: SK-MEL-5 melanoma
SK-OV-3 ovarian = system: SK-OV-3 ovarian
SN12C renal = system: SN12C renal
SNB-75 CNS = system: SNB-75 CNS
SNB-78 CNS = system: SNB-78 CNS
SW-620 colon = system: SW-620 colon
TK-10 renal = system: TK-10 renal
U251 CNS = system: U251 CNS
UACC-62 melanoma = system: UACC-62 melanoma
UO-31 renal = system: UO-31 renal
HOP-62 NSCLC = system: HOP-62 NSCLC
OVCAR-4 ovarian = system: OVCAR-4 ovarian
OVCAR-5 ovarian = system: OVCAR-5 ovarian
SF-268 CNS = system: SF-268 CNS
SK-MEL-2 melanoma = system: SK-MEL-2 melanoma
SNB-19 CNS = system: SNB-19 CNS
UACC-257 melanoma = system: UACC-257 melanoma

`C=CCCCCCCCC(O)C1C[C@H](O)C(CCCCC)O1` (some centres undefined) showed a TGI (786-0 renal) of 32.2 µM, a TGI (A498 renal) of 36.1 µM and a TGI (A549 NSCLC) of 37.5 µM. The TGI (ACHN renal) was 36.6 µM, the TGI (CAKI-1 renal) was 34.6 µM and the TGI (CCRF-CEM leukemia) was 41.6 µM. It also gave a TGI (COLO 205 colon) of 34.5 µM, a TGI (DLD-1 colon) of 31 µM and a TGI (DMS 114 small cell lung) of 37 µM. For the same molecule, the TGI (DMS 273 small cell lung) was 32.8 µM, the TGI (EKVX NSCLC) was 36.7 µM and the TGI (HCC-2998 colon) was 33.4 µM. For the same molecule, the TGI (HCT-116 colon) was 34.5 µM, the TGI (HCT-15 colon) was 40 µM and the TGI (HL-60(TB) leukemia) was 37.4 µM. It also gave a TGI (HOP-18 NSCLC) of 32.1 µM, a TGI (HOP-92 NSCLC) of 30.7 µM and a TGI (HT29 colon) of 35.6 µM. The TGI (IGROV1 ovarian) was 42.2 µM, the TGI (K-562 leukemia) was 47.6 µM and the TGI (KM12 colon) was 41.3 µM. The TGI (LOX IMVI melanoma) was 36.1 µM, the TGI (LXFL 529 NSCLC) was 29 µM and the TGI (M14 melanoma) was 34.6 µM. For the same molecule, the TGI (M19-MEL melanoma) was 35.9 µM, the TGI (MALME-3M melanoma) was 33.5 µM and the TGI (MOLT-4 leukemia) was 43.6 µM. For the same molecule, the TGI (NCI-H226 lung) was 29.6 µM, the TGI (NCI-H23 lung) was 36.8 µM and the TGI (NCI-H460 lung) was 37.2 µM. For the same molecule, the TGI (NCI-H522 lung) was 35.1 µM, the TGI (OVCAR-3 ovarian) was 32.7 µM and the TGI (OVCAR-8 ovarian) was 40.2 µM. For the same molecule, the TGI (RPMI-8226 leukemia) was 43.9 µM, the TGI (RXF 393 renal) was 37.7 µM and the TGI (SF-295 CNS) was 33 µM. It also gave a TGI (SF-539 CNS) of 30.7 µM, a TGI (SK-MEL-28 melanoma) of 33.7 µM and a TGI (SK-MEL-5 melanoma) of 34.7 µM. The TGI (SK-OV-3 ovarian) was 43.2 µM, the TGI (SN12C renal) was 36 µM and the TGI (SNB-75 CNS) was 29.7 µM. For the same molecule, the TGI (SNB-78 CNS) was 45.1 µM, the TGI (SW-620 colon) was 41.7 µM and the TGI (TK-10 renal) was 34.8 µM. The TGI (U251 CNS) was 31.3 µM, the TGI (UACC-62 melanoma) was 29.6 µM and the TGI (UO-31 renal) was 31.9 µM.

`CC1=C(C(=O)CC(=O)C(=O)Nc2cccc(C)c2C)Sc2ccccc2N1` gave a TGI (786-0 renal) greater than 100 µM, a TGI (A549 NSCLC) greater than 100 µM and a TGI (ACHN renal) greater than 100 µM. For the same molecule, the TGI (CAKI-1 renal) was greater than 100 µM, the TGI (CCRF-CEM leukemia) was greater than 100 µM and the TGI (DLD-1 colon) was greater than 100 µM. The TGI (DMS 114 small cell lung) was greater than 100 µM, the TGI (EKVX NSCLC) was greater than 100 µM and the TGI (HCC-2998 colon) was greater than 100 µM. It also gave a TGI (HCT-116 colon) greater than 100 µM, a TGI (HCT-15 colon) greater than 100 µM and a TGI (HL-60(TB) leukemia) greater than 100 µM. The TGI (HOP-18 NSCLC) was greater than 100 µM, the TGI (HOP-62 NSCLC) was greater than 100 µM and the TGI (HOP-92 NSCLC) was greater than 100 µM. It also gave a TGI (HT29 colon) greater than 100 µM, a TGI (IGROV1 ovarian) greater than 100 µM and a TGI (K-562 leukemia) greater than 100 µM. For the same molecule, the TGI (KM12 colon) was greater than 100 µM, the TGI (LOX IMVI melanoma) was greater than 100 µM and the TGI (LXFL 529 NSCLC) was greater than 100 µM. For the same molecule, the TGI (M14 melanoma) was greater than 100 µM, the TGI (M19-MEL melanoma) was greater than 100 µM and the TGI (MALME-3M melanoma) was greater than 100 µM. For the same molecule, the TGI (MOLT-4 leukemia) was greater than 100 µM, the TGI (NCI-H226 lung) was greater than 100 µM and the TGI (NCI-H23 lung) was greater than 100 µM. For the same molecule, the TGI (NCI-H460 lung) was greater than 100 µM, the TGI (NCI-H522 lung) was greater than 100 µM and the TGI (OVCAR-3 ovarian) was greater than 100 µM. It also gave a TGI (OVCAR-4 ovarian) greater than 100 µM, a TGI (OVCAR-5 ovarian) greater than 100 µM and a TGI (OVCAR-8 ovarian) greater than 100 µM. The TGI (RPMI-8226 leukemia) was greater than 100 µM, the TGI (RXF 393 renal) was greater than 100 µM and the TGI (SF-268 CNS) was greater than 100 µM. For the same molecule, the TGI (SF-295 CNS) was greater than 100 µM, the TGI (SF-539 CNS) was greater than 100 µM and the TGI (SK-MEL-2 melanoma) was greater than 100 µM. For the same molecule, the TGI (SK-MEL-28 melanoma) was greater than 100 µM, the TGI (SK-MEL-5 melanoma) was greater than 100 µM and the TGI (SK-OV-3 ovarian) was greater than 100 µM. The TGI (SN12C renal) was greater than 100 µM, the TGI (SNB-19 CNS) was greater than 100 µM and the TGI (SNB-78 CNS) was greater than 100 µM. The TGI (SW-620 colon) was greater than 100 µM, the TGI (TK-10 renal) was greater than 100 µM and the TGI (U251 CNS) was greater than 100 µM. It also gave a TGI (UACC-257 melanoma) greater than 100 µM, a TGI (UACC-62 melanoma) greater than 100 µM and a TGI (UO-31 renal) greater than 100 µM.
